The values that follow come from ChEMBL document CHEMBL3108668, “Antitumor activity of jujuboside B and the underlying mechanism via induction of apoptosis and autophagy” (J Nat Prod, 2014).

For test [1], the system named is AGS. Nature of the test: Cell cycle arrest in human AGS cells assessed as accumulation at sub G1 phase at 150 uM after 24 hrs by propidium iodide staining-based flow cytometry. The test is classed as functional. For orientation: A flow cytometer gives signals particle by particle.
For test [2], the system named is AGS. Description: Cytotoxicity against human AGS cells after 24 hrs by MTT assay. The format is functional, cell-based.

pIC50: −log10 of the molar value.

Consider `CC(C)=C[C@H]1C[C@](C)(O)[C@@H]2[C@H]3CC[C@@H]4[C@@]5(C)CC[C@H](O[C@@H]6OC[C@H](O)[C@H](O[C@@H]7O[C@H](CO)[C@@H](O)[C@H](O)[C@H]7O[C@@H]7OC[C@@H](O)[C@H](O)[C@H]7O)[C@H]6O[C@@H]6O[C@@H](C)[C@H](O)[C@@H](O)[C@H]6O)C(C)(C)[C@@H]5CC[C@@]4(C)[C@@]34CO[C@@]2(C4)O1`, for which the Activity with AGS [1] is 21.73%; in the test on AGS [2] it was “Dose-dependent effect”. In the test with AGS [2], this compound showed a pIC50 of 3.97.

Usually pIC50 stands for the negative decadic logarithm of the IC50, by convention in mol/L. A high value points to a low IC50.
